Marks after values point to notes of the source that are not given here.
Tests used:
Type in all cases: in vivo
[1] = system: Panc-1 human pancreatic cancer; assay: Panc-1 human pancreatic cancer xenografts in nude mice; conditions: 10 μg/day s.c. for 36 days
Description: Panc-1 cancers were transplanted s.c. into both flank areas of 60 female nude mice, and allowed to grow for 105 days before starting the treatment with GH-RH antagonists. The mice were randomly assigned into 3 experimental groups with 8 animals in each group and received single daily injections for 36 days as follows: 1. Control (vehicle solution); 2. JMR-132 (10 μg/day s.c.); 3. Peptide 11457 (10 μg/day s.c.). Tumor volumes were measured once a week. The experiment was ended on day 82 by sacrificing the mice under Isoflurane anesthesia. Resulting tumors were cleaned, weighed, and snap-frozen until further analyses. Statistical analyses of the measurement results were done by two-tailed t-test, p<0.05 being considered significant. Data are presented as the means±S.E.

[2] = system: H-460 human non-small cell lung cancer; assay: H-460 human non-SCLC xenografts in nude mice, Experiment 2; conditions: 10 μg/day s.c.
Description: Male nude mice were implanted s.c. with 3 mm^3 pieces of H-460 human non-SCLC tumor tissue on both flanks. When tumors had grown to a mean volume of approximately 90 mm^3, the mice were randomly assigned into 12 experimental groups with 8 to 10 animals in each group and received single daily injections for 28 days as follows: 1. Control (vehicle solution); 2. JMR-132 (10 μg/day s.c.); 3. Peptide 11109 (5 μg/day s.c.); 4. Peptide 11113 (5 μg/day s.c.); 5. Peptide 11119 (5 μg/day s.c.); 6. Peptide 11209 (5 μg/day s.c.); 7. Peptide 11313 (5 μg/day s.c.); 8. Peptide 11408 (5 μg/day s.c.); 9. Peptide 11435 (5 μg/day s.c.); 10. Peptide 11459 (5 μg/day s.c.); 11. Peptide 11469 (5 μg/day s.c.); 12. Peptide 11491 (5 μg/day s.c.). Tumor volumes were measured once a week. The experiment was ended on day 28 by sacrificing the mice under Isoflurane anesthesia. Resulting tumors were cleaned, weighed, and snap-frozen until further analyses. Statistical analyses of the measurement results were done by two-tailed t-test, p<0.05 being considered significant. Data are presented as the means±S.E.

[3] = system: PC-3 human hormone-independent prostate cancer; assay: PC-3 human prostate cancer xenografts in nude mice, Experiment 2; conditions: 10 μg/day s.c.
Description: Male nude mice were implanted s.c. with 3 mm^3 pieces of PC-3 human hormone-independent prostate cancer tissue on both flanks. When tumors reached a volume of approx. 50 mm^3, the mice were divided into 4 experimental groups with 8 to 10 animals in each group and received single daily injections for 35 days as follows: 1. Control (vehicle solution); 2. JMR-132 (10 μg/day s.c.); 3. Peptide 1109 (10 μg/day s.c.); 4. Peptide 11111 (10 μg/day s.c.); Tumor volumes were measured once a week. The experiment was ended on day 35 by sacrificing the mice under Isoflurane anesthesia. Resulting tumors were cleaned, weighed, and snap-frozen until further analyses. Statistical analyses of the measurement results were done by two-tailed t-test, p<0.05 being considered significant. Data are presented as the means±S.E.
Experiment 2 was similar to Experiment 1. Experiment 2 was started when PC-3 tumors had grown to approximately 50 mm^3 in volume. At this time, the animals were divided into 5 experimental groups with 8 animals in each group, and received single daily injections for 14 days as follows: 1. Control (vehicle solution); 2. JMR-132 (10 μg/day s.c.); 3. Peptide 1109 (5 μg/day s.c.); 4. Peptide 11109 (5 μg/day s.c.); 5. Peptide 11109 (2 μg/day s.c.). Further details of Experiment 2 are the same as for Experiment 1

[4] = system: PC-3 human hormone-independent prostate cancer; assay: PC-3 human prostate cancer xenografts in nude mice, Experiment 3; conditions: 10 μg/day s.c., 28 days
Description: Male nude mice were implanted s.c. with 3 mm^3 pieces of PC-3 human hormone-independent prostate cancer tissue on both flanks. When tumors reached a volume of approximately 50 mm^3, the mice were divided into 12 experimental groups with 8 to 10 animals in each group and received single daily injections for 28 days as follows: 1. Control (vehicle solution); 2. JMR-132 (10 μg/day s.c.); 3. Peptide 11113 (2 μg/day s.c.); 4. Peptide 11119 (2 μg/day s.c.); 5. Peptide 11209 (2 μg/day s.c.); 6. Peptide 11313 (2 μg/day s.c.); 7. Peptide 11408 (2 μg/day s.c.); 8. Peptide 11435 (2 μg/day s.c.); 9. Peptide 11457 (2 μg/day s.c.); 10. Peptide 11459 (2 μg/day s.c.); 11. Peptide 11469 (2 μg/day s.c.); 12. Peptide 11491 (2 μg/day s.c.).
Tumor volumes were measured once a week. The experiment was ended on day 28 by sacrificing the mice under Isoflurane anesthesia. Resulting tumors were cleaned, weighed, and snap-frozen until further analyses. Statistical analyses of the measurement results were done by two-tailed t-test, p<0.05 being considered significant.

[5] = system: H-460 human non-small cell lung cancer; assay: H-460 human non-SCLC xenografts in nude mice, Experiment 3; conditions: 10 μg/day s.c., 28 days
Description: (§1) Male nude mice were implanted s.c. with 3 mm^3 pieces of H-460 human non-SCLC tumor tissue on both flanks. When tumors had grown to a mean volume of approximately 90 mm^3, the mice were randomly assigned into 8 experimental groups with 8 to 10 animals in each group and received single daily injections for 28 days as follows: 1. Control (vehicle solution); 2. JMR-132 (10 μg/day s.c.); 3. Peptide 11123 (5 μg/day s.c.); 4. Peptide 11125 (5 μg/day s.c.); 5. Peptide 11307 (5 μg/day s.c.); 6. Peptide 11317 (5 μg/day s.c.); 7. Peptide 11473 (5 μg/day s.c.); 8. Peptide 11485 (5 μg/day s.c.). Tumor volumes were measured once a week. The experiment was ended on day 28 by sacrificing the mice under Isoflurane anesthesia. Resulting tumors were cleaned, weighed, and snap-frozen until further analyses. Statistical analyses of the measurement results were done by two-tailed t-test, p<0.05 being considered significant.

[6] = system: H-460 human non-small cell lung cancer; assay: H-460 human non-SCLC xenografts in nude mice, Experiment 1; conditions: 10 μg/day s.c., 28 days; means±S.E.
Description: as §1, with “into 4” for “into 8”, “with” for “with 8 to”, “Peptide 1109 (10” for “Peptide 11123 (5”, “Peptide 11111 (10” for “Peptide 11125 (5 μg/day s.c.); 5. Peptide 11307 (5 μg/day s.c.); 6. Peptide 11317 (5 μg/day s.c.); 7. Peptide 11473 (5 μg/day s.c.); 8. Peptide 11485 (5”, “significant. Data are presented as the means±S.E.” for “significant.”

## [PhAc^0-Tyr^1, D-Arg^2, Cpa^6, Ala^8, Har^9, Tyr(Me)^10, His^11, Abu^15, His^20, Nle^27, D-Arg^28, Har^29]hGH-RH(1-29)NH2 [JMR-132, reference compound]
[1]; end of experiment day 82
  Tumor weights: 185 ± 105 mg
[1]; means±S.E.
  Tumor growth from day 1 to day 82 (%): 1730 ± 350%
  Tumor volume on day 82 (mm^3): 511 ± 221* mm^3
[1]; observed for at least 82 days
  Effect on the growth of Panc-1 human pancreatic cancers: less effective
[2]; 28 days, means±S.E.
  Tumor growth after 4 weeks (%): 11537 ± 8215%
[2]; after 4 weeks, negative = stimulation
  Inhibition (%): (−46.14) %
[3]; 14 days
  Tumor growth after 2 weeks (%): 432%
[3]; tumor growth after 2 weeks
  Inhibition (%): 39.61%
[4]
  Tumor growth inhibition after 4 weeks (%): 28.11%
[5]
  Tumor growth inhibition after 4 weeks (%): 15.37%
[6]
  Tumor growth after 4 weeks (%): 2404 ± 604%

Reference: patent US9260504B2, “N- and C-terminal substituted antagonistic analogs of GH-RH” (University of Miami, priority 2008, dated 2016)
